Laboratory results as given in patent EP0538016A1, “MRSA active 2-phenyl-carbapenems” (MERCK & CO. INC., priority 1991, dated 1993).

Test system: MRSA
Assay: Activity against a strain of MRSA pathogen, relative to thienamycin
Assay type: cell-based, methicillin resistant Staphylococcus aureus
Conditions: relative to the effectiveness of thienamycin, arbitrarily assigned an effectiveness of 1
Experimental: The activity of the following compounds was measured against a strain of MRSA pathogen and reported as relative to the effectiveness of thienamycin, which is arbitrarily assigned an effectiveness of 1. Regarding this measure of activity, reference is made to R. Guthikonda, et al., J. Med. Chem., 30, 871 (1987). [drawing 76]

Row | SMILES | ANTI-INFECTIVE ACTIVITY MRSA
1 | C[C@@H](O)[C@H]1C(=O)N2C(C(=O)O)=C(c3cc([S+](C)[O-])cc([S+](C)[O-])c3)C[C@H]12 (stereo partly drawn) [R^a1=(S→O)Me, R^a2=H, R^a3=(S→O)Me] | 1.2
2 | C[C@@H](O)[C@H]1C(=O)N2C(C(=O)O)=C(c3cc([S+](C)[O-])cc(S(C)(=O)=O)c3)C[C@H]12 (stereo partly drawn) [R^a1=(S→O)Me, R^a2=H, R^a3=[drawing]] | 3.7
3 | CC(O)C1C(=O)N2C(C(=O)O)=C(c3cc(Br)cc(CO)c3)CC12 (stereo not drawn) [R^a1=Br, R^a2=H, R^a3=CH2OH, reference compound] | 8.7
4 | CC(O)C1C(=O)N2C(C(=O)O)=C(c3cc(Br)cc(C=O)c3)CC12 [R^a1=Br, R^a2=H, R^a3=HC=O, sodium (5R,6S)-2-[(3-aldehydo)-(5-bromo)phenyl]-6-[(1R)-1-hydroxyethyl]carbapen-2-em-3-carboxylate] | 219
5 | CC(O)C1C(=O)N2C(C(=O)O)=C(c3cccc(CO)c3)CC12 (stereo not drawn) [R^a1=H, R^a2=H, R^a3=CH2OH, reference compound] | 0.9
6 | CC(O)C1C(=O)N2C(C(=O)O)=C(c3cccc(C=O)c3)CC12 (stereo not drawn) [R^a1=H, R^a2=H, R^a3=HC=O, reference compound] | 3.3
7 | CC(O)C1C(=O)N2C(C(=O)O)=C(c3ccc(C=O)cc3)CC12 (stereo not drawn) [R^a1=H, R^a2=HC=O, R^a3=H, reference compound] | 2
8 | CC(O)C1C(=O)N2C(C(=O)O)=C(c3ccc(I)cc3)CC12 (stereo not drawn) [R^a1=H, R^a2=I, R^a3=H, reference compound] | 1.8
9 | CC(O)C1C(=O)N2C(C(=O)O)=C(c3cc(I)cc([S+](C)[O-])c3)CC12 [R^a1=I, R^a2=H, R^a3=(S→O)Me, sodium (5R, 6S)-2-[(3-methylsulfinyl)-5-iodophenyl]-6-[(1R)-1-hydroxyethyl]carbapen-2-em-3-carboxylate] | 63
10 | CC(O)C1C(=O)N2C(C(=O)O)=C(c3cccc(I)c3)CC12 (stereo not drawn) [R^a1=I, R^a2=H, R^a3=H, reference compound] | 21
11 | CC(O)C1C(=O)N2C(C(=O)O)=C(c3cc(I)cc(I)c3)CC12 [R^a1=I, R^a2=H, R^a3=I, sodium (5R,6S)-2-[(3,5-diiodo)phenyl]-6-[1R-1-hydroxyethyl]-carbapen-2-em-3-carboxylate] | 88
12 | CSc1cc(I)cc(C2=C(C(=O)O)N3C(=O)C(C(C)O)C3C2)c1 [R^a1=I, R^a2=H, R^a3=SMe, sodium (5R, 6S)-2-[(3-methylthio)-5-iodophenyl]-6-[(1R)-1-hydroxyethyl]carbapen-2-em-3-carboxylate] | 60
13 | CC(O)C1C(=O)N2C(C(=O)O)=C(c3cc(I)cc(S(C)(=O)=O)c3)CC12 (stereo not drawn) [R^a1=I, R^a2=H, R^a3=[drawing]] | 63
14 | CSc1cc(C2=C(C(=O)O)N3C(=O)[C@H]([C@@H](C)O)[C@H]3C2)cc([S+](C)[O-])c1 (stereo partly drawn) [R^a1=SMe, R^a2=H, R^a3=(S→O)Me, sodium (5R,6S)-2-[(3-methylsulfinyl)-(5-methylthio)phenyl]-6-[(1R)-hydroxyethyl]carbapen-2-em-3-carboxylate] | 6.1
15 | CSc1cc(CO)cc(C2=C(C(=O)O)N3C(=O)[C@H]([C@@H](C)O)[C@H]3C2)c1 [R^a1=SMe, R^a2=H, R^a3=CH2OH] | 3.2
16 | CSc1cc(C=O)cc(C2=C(C(=O)O)N3C(=O)[C@H]([C@@H](C)O)[C@H]3C2)c1 [R^a1=SMe, R^a2=H, R^a3=HC=O] | 61
17 | CSc1cc(SC)cc(C2=C(C(=O)O)N3C(=O)C(C(C)O)C3C2)c1 (stereo not drawn) [R^a1=SMe, R^a2=H, R^a3=SMe] | 28
18 | C[C@@H](O)[C@H]1C(=O)N2C(C(=O)O)=C(c3cc(S(C)(=O)=O)cc(S(C)(=O)=O)c3)C[C@H]12 [R^a1=[drawing], R^a2=H, R^a3=[drawing]] | 12
